{"source": "paper PMC10374545", "about": "“A small molecule inhibitor of PTP1B and PTPN2 enhances T cell anti-tumor immunity” (Nature Communications, 2023)", "key": {"[1]": {"test_system": "STAT-5 Y694 phosphorylation in CD8+ OT-I cells", "assay": "Basal and IL-2-induced STAT-5 Y694 phosphorylation in activated OT-I cells", "format": "cell-based, mouse", "details": "for p-STAT-5 MFI, single replicates: 1 μM, IL-2 5 ng/ml, Fig. 2F raw data, listed as CMP-182; for p-STAT-5, group mean (Mean 2): IL-2 5 ng, N 6", "description": "For assessing IL-2-induced STAT-5 Y694 phosphorylation (p-STAT-5) in activated OT-I cells, single cell suspension of OT-I cells from the lymph nodes of OT-I;Ptpn2^fl/fl mice were stimulated with 1 nM […] (N4) for 16 h. […] Reactions were terminated by washing the cells with ice-cold PBS and then stained with fixable viable dye and fluorophore-conjugated antibodies to CD8 on ice for 15 min. Cells were then washed and fixed with 4% (w/w) paraformaldehyde (BD Cytofix™Fixation Buffer) at room temperature for 30 min and permeabilised with 90% (v/v) methanol at −20 °C for 30 min. Permeabilised cells were incubated with a rabbit antibody specific for p-STAT-5 (p-STAT-5; D47E7, Cell Signaling Technology) for 60 min at room temperature, washed thrice with PBS and then stained with goat anti-rabbit IgG (H + L) F(ab’)2 fragment conjugated to Alexa Fluor 647 (Jackson ImmunoResearch Labs; West Grove, PA) to monitor for p-STAT-5 in CD8^+ OT-I cells by flow cytometry."}, "PTPN2": {"target": "T1, PTPN2 (Homo sapiens, UniProt P17706)", "T1 construct": "PTPN2, residues 1-387; made in house; host or cells: E. coli BL21(DE3)", "T1 sequence (P17706 1-387 isoform P17706-2)": "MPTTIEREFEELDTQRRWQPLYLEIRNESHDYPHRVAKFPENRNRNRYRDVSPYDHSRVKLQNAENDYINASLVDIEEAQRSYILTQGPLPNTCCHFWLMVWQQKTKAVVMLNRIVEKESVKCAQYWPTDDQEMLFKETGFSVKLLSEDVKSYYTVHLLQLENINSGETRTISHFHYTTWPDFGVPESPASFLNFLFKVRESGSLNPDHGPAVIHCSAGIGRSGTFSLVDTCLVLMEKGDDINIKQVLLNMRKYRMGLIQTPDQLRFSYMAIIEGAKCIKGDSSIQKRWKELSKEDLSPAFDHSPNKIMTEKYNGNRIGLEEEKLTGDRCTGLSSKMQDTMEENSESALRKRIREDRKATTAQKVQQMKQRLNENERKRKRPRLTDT", "assay": "Mode of inhibition and Ki, Lineweaver-Burk kinetic analysis with DiFMUP", "format": "biochemical", "description": "To determine the mode of inhibition, the reactions were initiated by the addition of enzyme (final concentration for PTP1B and PTPN2 was 0.05 nM) to the reaction mixtures (0.2 ml) containing various concentrations of DiFMUP with different concentrations of the inhibitor. The reaction was allowed to proceed for 10 min and then quenched by the addition of 40 µl of a 160 µM solution of bpV(Phen) (Sigma-Aldrich, cat# SML0889). The fluorescence signal was measured using a CLARIOstar Plus Microplate Spectrophotometer (BMG Labtech) using excitation and emission wavelength of 340 nm and 450 nm, respectively. Data were fitted using Prism GraphPad 9.2.0. For selectivity studies, the inhibition assay for other PTPs were performed under the same conditions as used for PTP1B and PTPN2 except with different DiFMUP concentration corresponding to the Km of the PTP studied."}, "[2]": {"assay": "Histology of liver, lungs, salivary glands, colon (H&E, Sirius Red)", "format": "in vivo, mouse", "details": "10 mg/kg i.v."}, "[3]": {"test_system": "SFK Y418 phosphorylation in naive CD8+ T cells", "assay": "TCR signaling, p-SFK (Y418) by flow cytometry", "format": "cell-based, mouse", "details": "for p-SFK MFI, single replicates: 10 μM 4 h, Fig. 2D raw data, listed as CMP-182", "description": "For assessing TCR signaling, single-cell suspensions of naïve (CD44^loCD62L^hi) lymph node CD8^+ T cells (isolated using the EasySep™ Mouse Naïve CD8^+ T cell Isolation Kit, Stemcell Technologies) were washed with ice-cold PBS supplemented with 2% (v/v) FBS and stained with fixable viable dye and fluorophore-conjugated antibodies to CD8 and CD4 on ice for 15 min. […] Cells were then incubated with 5 μg/ml hamster α-mouse CD3ε for 20 min on ice, washed with complete T cell medium supplemented with 1% (v/v) FBS, and then TCR cross-linked with goat α-hamster IgG (20 μg /ml, Sigma) for the indicated times at 37 °C. The reaction was terminated by the addition of paraformaldehyde (BD Cytofix™ Fixation Buffer) to a final concentration of 2% (v/v) on ice for 20 min. Fixed cells were washed in complete T cell medium/1% (v/v) FBS and permeabilised with 90% (v/v) methanol on ice for 30 min. Permeabilised cells were stained with fluorophore-conjugated antibodies to Y418 phosphorylated and activated SFKs (p-SFK; 1:100, Invitrogen) for 1 h at room temperature; p-SFK mean fluorescence intensities in CD8^+ T cells were determined by flow cytometry."}}, "note": "Several values for one entry are separate records, joined by “and”; a condition that tells them apart may be missing. Equal values may be shown once.", "data": [{"smiles": "CC(C)(O)CCOc1ccc2cc(O)c(N3CC(=O)NS3(=O)=O)c(F)c2c1", "note": "[Compound 182, 5-(1-Fluoro-3-hydroxy-7-(3-hydroxy-3-methylbutoxy)naphthalen-2-yl)−1,2,5-thiadiazolidin-3-one 1,1-dioxide]", "values": [{"measurement": "p-STAT-5 MFI, single replicates", "setting": "[1]; time 0", "value": "5942 and 5539 and 8398 and 8753 and 4540 and 4913"}, {"measurement": "p-STAT-5 MFI, single replicates", "setting": "[1]; time 5", "value": "14341 and 15725 and 15901 and 18555 and 14928 and 16788"}, {"measurement": "p-STAT-5 MFI, single replicates", "setting": "[1]; time 15", "value": "16676 and 18523 and 19580 and 20940 and 16523 and 19213"}, {"measurement": "p-STAT-5 MFI, single replicates", "setting": "[1]; time 30", "value": "16027 and 18696 and 19133 and 19342 and 15170 and 18785"}, {"measurement": "p-STAT-5 MFI, single replicates", "setting": "[1]; time 60", "value": "13163 and 13881 and 14770 and 14670 and 10937 and 14331"}, {"measurement": "p-STAT-5 MFI, single replicates", "setting": "[1]; time 120", "value": "10820 and 12152 and 10493 and 12920 and 10327 and 12862"}, {"measurement": "basal and IL-2-induced STAT-5 Y694 phosphorylation (p-STAT-5)", "setting": "[1]; CD8+ T cells", "value": "enhanced"}, {"measurement": "p-STAT-5, column mean", "setting": "[1]; CD8, IL-2 5 ng, mean over all times, two-way ANOVA, Fig. 2F", "value": 14007}, {"measurement": "p-STAT-5, group mean (Mean 2)", "setting": "[1]; Row 1 (time 0), Fig. 2F", "value": 6348}, {"measurement": "p-STAT-5, group mean (Mean 2)", "setting": "[1]; Row 2 (time 5), Fig. 2F", "value": 16040}, {"measurement": "p-STAT-5, group mean (Mean 2)", "setting": "[1]; Row 3 (time 15), Fig. 2F", "value": 18576}, {"measurement": "p-STAT-5, group mean (Mean 2)", "setting": "[1]; Row 4 (time 30), Fig. 2F", "value": 17859}, {"measurement": "p-STAT-5, group mean (Mean 2)", "setting": "[1]; Row 5 (time 60), Fig. 2F", "value": 13625}, {"measurement": "p-STAT-5, group mean (Mean 2)", "setting": "[1]; Row 6 (time 120), Fig. 2F", "value": 11596}, {"measurement": "pSTAT5, single replicates", "setting": "[1]; N4 1 nM 16 h, then 1 μM 1 h, no IL-2, Fig. 2E raw data, listed as WT+I", "value": "60.1 and 62.9 and 57.6 and 60.3"}, {"measurement": "pSTAT5%, mean of differences (B - A)", "setting": "[1]; WT+I vs. WT, 4 pairs, Fig. 2E", "value": 12.98}, {"measurement": "mode of inhibition", "setting": "PTPN2; Lineweaver-Burk", "value": "classic competitive inhibitor"}, {"measurement": "Ki", "setting": "PTPN2; varying inhibitor and DiFMUP, steady state", "value": "0.26 ± 0.02", "unit": "nM"}, {"measurement": "liver fibrosis (Picrosirius red)", "setting": "[2]", "value": "no signs of liver fibrosis"}, {"measurement": "lymphocytic infiltrates in liver, lungs, salivary glands and colon", "setting": "[2]", "value": "did not observe any overt lymphocytic infiltrates"}, {"measurement": "p-SFK MFI, single replicates", "setting": "[3]; TCR cross-linking time 0", "value": "92.6 and 93.9 and 88"}, {"measurement": "p-SFK MFI, single replicates", "setting": "[3]; TCR cross-linking time 2", "value": "252 (2×) and 216"}, {"measurement": "p-SFK MFI, single replicates", "setting": "[3]; TCR cross-linking time 5", "value": "211 and 192 and 269"}, {"measurement": "p-SFK MFI, single replicates", "setting": "[3]; TCR cross-linking time 10", "value": "178 and 172 and 193"}, {"measurement": "p-SFK, column mean", "setting": "[3]; 10 uM, mean over all times, two-way ANOVA, Fig. 2D", "value": 184.1}, {"measurement": "p-SFK, group mean (Mean 2)", "setting": "[3]; 10 uM, time 0, N 3, Fig. 2D", "value": 91.5}, {"measurement": "p-SFK, group mean (Mean 2)", "setting": "[3]; 10 uM, time 2, N 3, Fig. 2D", "value": 240}, {"measurement": "p-SFK, group mean (Mean 2)", "setting": "[3]; 10 uM, time 5, N 3, Fig. 2D", "value": 224}, {"measurement": "p-SFK, group mean (Mean 2)", "setting": "[3]; 10 uM, time 10, N 3, Fig. 2D", "value": 181}, {"measurement": "TCR-induced SFK Y418 phosphorylation (p-SFK)", "setting": "[3]; α-CD3/IgG crosslinking", "value": "enhanced"}]}]}
